Target: PAD4 enzyme (Homo sapiens (Human), UniProt Q9UM07)
Test: Ammonia Release Biochemical Assay (citrullination detected via ammonia release)
Details: PAD4 120 nM, substrate BAEE, 60-min preincubation, read-out: NH3 release
Procedure: Ammonia Release Biochemical Assay
Citrullination assay was detected via ammonia release. PAD4 enzyme was diluted to 120 nM in assay buffer (100 mM HEPES, 50 mM NaCl, 2 mM DDT, 0.6 mg/mL BSA, pH 7.4) added to wells containing various concentration of compound or DMSO vehicle (1% final) in black 384 well plate. Following a 60-min preincubation at room temperature, the reaction was initiated by the addition of substrate (1.5 mM BAEE in 200 mM HEPES, 50 mM NaCl, 350 uM CaCl2, 2 mM, pH 7.4). The reaction was stopped after 60 min by addition of stop/detection buffer containing 50 mM EDTA, 2.6 mM of o-phthaladehyde and 2.6 mM DTT. Assay was incubated at room temperature for 90 min before measuring fluorescence's (λex 405/λem 460 nm) on Tecan reader. IC50 was calculated using XL-fit software model 205. (Ref: Nat Chem Biol. 2015 March; 11(3):189-91).

Sequence of PAD4 enzyme (Q9UM07 whole entry): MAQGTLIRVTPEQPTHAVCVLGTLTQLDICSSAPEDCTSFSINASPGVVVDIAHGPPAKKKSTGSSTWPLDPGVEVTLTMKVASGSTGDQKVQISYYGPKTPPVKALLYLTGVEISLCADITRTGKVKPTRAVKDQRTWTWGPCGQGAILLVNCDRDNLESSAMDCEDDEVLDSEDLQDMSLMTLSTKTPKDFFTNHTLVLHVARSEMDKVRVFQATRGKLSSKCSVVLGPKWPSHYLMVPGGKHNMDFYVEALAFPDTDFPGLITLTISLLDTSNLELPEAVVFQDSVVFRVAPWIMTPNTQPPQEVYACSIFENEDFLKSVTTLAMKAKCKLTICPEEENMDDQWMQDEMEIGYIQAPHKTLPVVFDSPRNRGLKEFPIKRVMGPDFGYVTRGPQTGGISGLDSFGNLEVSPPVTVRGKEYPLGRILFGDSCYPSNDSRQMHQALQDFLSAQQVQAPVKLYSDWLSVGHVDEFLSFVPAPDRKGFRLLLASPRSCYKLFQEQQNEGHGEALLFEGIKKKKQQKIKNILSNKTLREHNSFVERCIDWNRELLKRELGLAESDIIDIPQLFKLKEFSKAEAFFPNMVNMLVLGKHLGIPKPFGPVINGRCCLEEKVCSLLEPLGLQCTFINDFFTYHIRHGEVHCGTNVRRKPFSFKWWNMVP

| SMILES | IC50 |
| --- | --- |
| N[C@@H]1CCN(C(=O)c2cc3c4c(c2)nc(-c2cc5ccccc5n2CC2CC2)n4CCCO3)C1 [Example 7, (R)-(3-aminopyrrolidin-1-yl)(1-(1-(cyclopropylmethyl)-1H-indol-2-yl)-8,9-dihydro-7H-6-oxa-2,9a-diazabenzo[cd]azulen-4-yl)methanone] | 1000 to 10000 nM |
| N[C@@H]1CCCN(C(=O)c2cc3c4c(c2)nc(-c2cc5ccccc5n2CCO)n4CCO3)C1 [Example 22, (R)-(3-aminopiperidin-1-yl)(2-(1-(2-hydroxyethyl)-1H-indol-2-yl)-3,4-dihydro-5-oxa-1,2a-diazaacenaphthylen-7-yl)methanone] | ≤ 1000 nM |
| N[C@@H]1CCCN(C(=O)c2cc3c4c(c2)nc(-c2cc5ccccc5n2CC(=O)O)n4CCO3)C1 [Example 42, (R)-2-(2-(7-(3-aminopiperidine-1-carbonyl)-3,4-dihydro-5-ox 1,2a-diazaacenaphthylen-2-yl)-1H-indol-1-yl)acetic acid] | ≥ 10000 nM |
| COCCn1c(-c2nc3cc(C(=O)N4CCC[C@@H](N)C4)cc4c3n2CCO4)cc2cccc(Cl)c21 [Example 36, (R)-(3-aminopiperidin-1-yl)(2-(7-chloro-1-(2-methoxyethyl)-1H-indol-2-yl)-3,4-dihydro-5-oxa-1,2a-diazaacenaphthylen-7-yl)methanone] | ≤ 1000 nM |
| N[C@@H]1CCCN(C(=O)c2cc3c4c(c2)nc(-c2cc5ccccc5n2CC(F)F)n4CCO3)C1 [Example 47, (R)-(3-aminopiperidin-1-yl)(2-(1-(2,2-difluoroethyl)-1H-indol-2-yl)-3,4-dihydro-5-oxa-1,2a-diazaacenaphthylen-7-yl)methanone] | ≤ 1000 nM |
| N[C@@H]1CCCN(C(=O)c2cc3c4c(c2)nc(-c2cc5cc(F)c(F)cc5n2CC2CC2)n4CCO3)C1 [Example 32, (R)-(3-aminopiperidin-1-yl)(2-(1-(cyclopropylmethyl)-5,6-difluoro-1H-indol-2-yl)-3,4-dihydro-5-oxa-1,2a-diazaacenaphthylen-7-yl)methanone] | ≤ 1000 nM |
| N[C@@H]1CCCN(C(=O)c2cc3c4c(c2)nc(-c2cc5ccccc5n2Cc2cnccn2)n4CCO3)C1 [Example 25, (R)-(3-aminopiperidin-1-yl)(2-(1-(pyrazin-2-ylmethyl)-1H-indol-2-yl)-3,4-dihydro-5-oxa-1,2a-diazaacenaphthylen-7-yl)methanone] | ≤ 1000 nM |
| COCCn1c(-c2nc3cc(C(=O)N4CCC[C@@H](N)C4)cc4c3n2CCO4)cc2ccc(OC)cc21 [Example 21, (R)-(3-aminopiperidin-1-yl)(2-(6-methoxy-1-(2-methoxyethyl)-1H-indol-2-yl)-3,4-dihydro-5-oxa-1,2a-diazaacenaphthylen-7-yl)methanone] | ≤ 1000 nM |
| N[C@@H]1CCCN(C(=O)c2cc3c4c(c2)nc(-c2cc5ccccc5n2CC2COC2)n4CCO3)C1 [Example 44, (R)-(3-aminopiperidin-1-yl)(2-(1-(oxetan-3-ylmethyl)-1H-indol-2-yl)-3,4-dihydro-5-oxa-1,2a-diazaacenaphthylen-7-yl)methanone] | 1000 to 10000 nM |
| N[C@@H]1CCN(C(=O)c2cc3c4c(c2)nc(-c2cc5ccccc5n2CC2CC2)n4CCO3)C1 [Example 2, (R)-(3-aminopyrrolidin-1-yl)(2-(1-(cyclopropylmethyl)-1H-indol-2-yl)-3,4-dihydro-5-oxa-1,2a-diazaacenaphthylen-7-yl)methanone] | 1000 to 10000 nM |
| CCn1c(-c2nc3cc(C(=O)N4CCC[C@@H](N)C4)cc4c3n2CCO4)cc2ccccc21 [Example 3, (R)-(3-aminopiperidin-1-yl)(2-(1-ethyl-1H-indol-2-yl)-3,4-dihydro-5-oxa-1,2a-diazaacenaphthylen-7-yl)methanone] | 1000 to 10000 nM |
| N[C@@H]1CCCN(C(=O)c2cc3c4c(c2)nc(-c2cc5ccccc5n2CC2CCOCC2)n4CCO3)C1 [Example 40, (R)-(3-aminopiperidin-1-yl)(2-(1-((tetrahydro-2H-pyran-4-yl)methyl)-1H-indol-2-yl)-3,4-dihydro-5-oxa-1,2a-diazaacenaphthylen-7-yl)methanone] | 1000 to 10000 nM |
| CN1CCC(Cn2c(-c3nc4cc(C(=O)N5CCC[C@@H](N)C5)cc5c4n3CCO5)cc3ccccc32)CC1 [Example 45, (R)-(3-aminopiperidin-1-yl)(2-(1-((l-methylpiperidin-4-yl)methyl)-1H-indol-2-yl)-3,4-dihydro-5-oxa-1,2a-diazaacenaphthylen-7-yl)methanone] | ≥ 10000 nM |
| N[C@@H]1CCCN(C(=O)c2cc3c4c(c2)nc(-c2cc5ccccc5n2Cc2cccnn2)n4CCO3)C1 [Example 30, (R)-(3-aminopiperidin-1-yl)(2-(1-(pyridazin-3-ylmethyl)-1H-indol-2-yl)-3,4-dihydro-5-oxa-1,2a-diazaacenaphthylen-7-yl)methanone] | 1000 to 10000 nM |
| N[C@@H]1CCCN(C(=O)c2cc3c4c(c2)nc(-c2cc5ccccc5n2CC2CC2)n4CCCO3)C1 [Example 6, (R)-(3-aminopiperidin-1-yl)(1-(1-(cyclopropylmethyl)-1H-indol-2-yl)-8,9-dihydro-7H-6-oxa-2,9a-diazabenzo[cd]azulen-4-yl)methanone] | 1000 to 10000 nM |
| N[C@@H]1CCCN(C(=O)c2cc3c4c(c2)nc(-c2cc5cccc(Cl)c5n2Cc2ncccc2F)n4CCO3)C1 [Example 34, (R)-(3-aminopiperidin-1-yl)(2-(7-chloro-1-((3-fluoropyridin-2-yl)methyl)-1H-indol-2-yl)-3,4-dihydro-5-oxa-1,2a-diazaacenaphthylen-7-yl)methanone] | ≤ 1000 nM |

Second part, the compound after the results:

| IC50 | SMILES |
| --- | --- |
| ≤ 1000 nM | COc1ccc2c(c1)cc(-c1nc3cc(C(=O)N4CCC[C@@H](N)C4)cc4c3n1CCO4)n2CC1CC1 [Example 60, (R)-(3-aminopiperidin-1-yl)(2-(1-(cyclopropylmethyl)-5-methoxy-1H-indol-2-yl)-3,4-dihydro-5-oxa-1,2a-diazaacenaphthylen-7-yl)methanone] |
| ≤ 1000 nM | N[C@@H]1CCCN(C(=O)c2cc3c4c(c2)nc(-c2cc5ccccc5n2Cc2ccccn2)n4CCN3)C1 [Example 69, (R)-(3-aminopiperidin-1-yl)(2-(1-(pyridin-2-ylmethyl)-1H-indol-2-yl)-5,6-dihydro-4H-imidazo[1,5,4-de]quinoxalin-8-yl)methanone] |
| 1000 to 10000 nM | N[C@@H]1CCCN(C(=O)c2cc3c4c(c2)nc(-c2cc5c(F)cccc5n2CC2CC2)n4CCN3)C1 [Example 80, (R)-(3-aminopiperidin-1-yl)(2-(1-(cyclopropylmethyl)-4-fluoro-1H-indol-2-yl)-5,6-dihydro-4H-imidazo[1,5,4-de]quinoxalin-8-yl)methanone] |
| ≤ 1000 nM | N[C@@H]1CCCN(C(=O)c2cc3c4c(c2)nc(-c2cc5cc(Br)ccc5n2CC2CC2)n4CCN3)C1 [Example 67, (R)-(3-aminopiperidin-1-yl)(2-(5-bromo-1-(cyclopropylmethyl)-1H-indol-2-yl)-5,6-dihydro-4H-imidazo [1,5,4-de]quinoxalin-8-yl)methanone] |
| ≤ 1000 nM | N[C@@H]1CCCN(C(=O)c2cc3c4c(c2)nc(-c2cc5ccccc5n2Cc2ccccc2F)n4CCN3)C1 [Example 70, (R)-(3-aminopiperidin-1-yl)(2-(1-(2-fluorobenzyl)-1H-indol-2-yl)-5,6-dihydro-4H-imidazo[1,5,4-de]quinoxalin-8-yl)methanone] |
| ≤ 1000 nM | Cc1cccc2cc(-c3nc4cc(C(=O)N5CCC[C@@H](N)C5)cc5c4n3CCN5)n(CC3CC3)c12 [Example 84, (R)-(3-aminopiperidin-1-yl)(2-(1-(cyclopropylmethyl)-7-methyl-1H-indol-2-yl)-5,6-dihydro-4H-imidazo [1,5,4-de]quinoxalin-8-yl)methanone] |
| ≤ 1000 nM | CC(C)Cn1c(-c2nc3cc(C(=O)N4CCC[C@@H](N)C4)cc4c3n2CCO4)cc2cccc(Cl)c21 [Example 55, (R)-(3-aminopiperidin-1-yl)(2-(7-chloro-1-isobutyl-1H-indol-2-yl)-3,4-dihydro-5-oxa-1,2a-diazaacenaphthylen-7-yl)methanone] |
| ≥ 10000 nM | N[C@@H]1CCCN(C(=O)c2cc3c4c(c2)nc(-c2cc5ccccc5n2CC2CC2)n4CCN3S(=O)(=O)c2ccc(Cl)cc2)C1 [Example 81, (R)-(3-aminopiperidin-1-yl)(6-((4-chlorophenyl)sulfonyl)-2-(1-(cyclopropylmethyl)-1H-indol-2-yl)-5,6-dihydro-4H-imidazo[1,5,4-de]quinoxalin-8-yl)methanone] |
| ≤ 1000 nM | N[C@@H]1CCCN(C(=O)c2cc3c4c(c2)nc(-c2cc5ccccc5n2Cc2ccncc2)n4CCN3)C1 [Example 71, (R)-(3-aminopiperidin-1-yl)(2-(1-(pyridin-4-ylmethyl)-1H-indol-2-yl)-5,6-dihydro-4H-imidazo[1,5,4-de]quinoxalin-8-yl)methanone] |
| ≤ 1000 nM | COc1ccc2cc(-c3nc4cc(C(=O)N5CCC[C@@H](N)C5)cc5c4n3CCO5)n(Cc3ccc(F)cc3)c2c1 [Example 51, (R)-(3-aminopiperidin-1-yl)(2-(1-(4-fluorobenzyl)-6-methoxy-1H-indol-2-yl)-3,4-dihydro-5-oxa-1,2a-diazaacenaphthylen-7-yl)methanone] |
| ≤ 1000 nM | N[C@@H]1CCCN(C(=O)c2cc3c4c(c2)nc(-c2cc5cccc(Cl)c5n2CC2CC2)n4CCO3)C1 [Example 57, (R)-(3-aminopiperidin-1-yl)(2-(7-chloro-1-(cyclopropylmethyl)-1H-indol-2-yl)-3,4-dihydro-5-oxa-1,2a-diazaacenaphthylen-7-yl)methanone] |

Source: patent US11833156B2, “Heterocyclic compounds as pad inhibitors” (JUBILANT EPIPAD LLC, priority 2017, dated 2023)
